# Experimental data as given in US9314468B2, “Chemokine receptor modulators” (Altiris Therapeutics, Inc., priority 2008, dated 2016).
# Legend:
# [1] = molecular target: T1, CXCR4 (Homo sapiens (Human), UniProt P61073); test: Cellular impedance change induced by SDF-1a (cellular dielectric spectroscopy); type: cell-based; details: HeLa cells, endogenous CXCR4, EC50 concentration of SDF-1a, 30 minutes; read-out: Antagonist IC50
# Method: This assay measures the change in impedance that occurs when cells are stimulated with SDF-1a. Changes in shape and cytoskeleton result in a change of impedance that is dependent on the activation of the CXCR4 receptor. This assay is contracted to MDS Pharma Services and performed as described in http://discovery.mdsps.com/Catalog/Services/Screening/CellKey/AssayDetails.aspx?id=7 (Assay 930070). Briefly, human HeLa cells expressing endogenous CXCR4 are grown in vitro and receptor activation in live cells is measured using cellular dielectric spectroscopy (CDS).
# [2] = molecular target: T1, CXCR4; test: Functional calcium mobilization assay (SDF-1α induced); type: cell-based; details: for IC50: CEM cells, SDF-1α challenge at EC80-EC90, read-out: Ca Flux IC50; for inhibition at 1 µM: CCRF-CEM, read-out: % inhibition at 1 μM
# Method: Functional modulation of CXCR4 was determined by calcium mobilization assay using leukemic lymphoid CEM cells, which naturally express high levels of CXCR4. Generally, the assay is carried out as follows: Cells are grown in vitro to confluency. On the day of the assay, cells are removed from the incubator, culture medium removed and replaced with a calcium sensitive dye (Calcium3 assay kit; Molecular Devices, Sunnyvale, Calif.). The cells are allowed to dye load for 45-60 min at 37° C. in the cell culture incubator and then allowed to equilibrate to room temperature for no more than 15 min before assay.
# Compound plates were generated containing up to 3% dimethyl sulfoxide in media kept at room temperature. Test compounds were added to the cells at a 1:3 dilution, and calcium mobilization was measured using a Flex Station fluorescence imager (Molecular Devices). This first read was used to determine direct agonist activation of the CXCR4 receptor by the test compounds. […] Full dose response curves were generated daily for SDF-1a to calculate IC50 concentrations. The IC50 values are reported. In cases, where one was not determined, a percent inhibition at the 1 μM concentration was extrapolated.
# Functional calcium mobilization assay was conducted as described in Example 27.
# T1 sequence (P61073 whole entry): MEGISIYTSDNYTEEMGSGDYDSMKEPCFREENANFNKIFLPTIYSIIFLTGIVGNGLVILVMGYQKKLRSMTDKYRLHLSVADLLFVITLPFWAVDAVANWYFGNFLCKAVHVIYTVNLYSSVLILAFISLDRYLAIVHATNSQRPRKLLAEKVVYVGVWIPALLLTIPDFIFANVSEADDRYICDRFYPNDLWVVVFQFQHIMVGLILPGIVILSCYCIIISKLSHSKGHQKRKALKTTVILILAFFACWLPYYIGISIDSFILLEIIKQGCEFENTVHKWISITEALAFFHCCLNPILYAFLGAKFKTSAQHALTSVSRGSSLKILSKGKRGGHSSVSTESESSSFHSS
Structure (SMILES),IC50 [2] [nM],further results
NCCCCN(Cc1nccc2c3ccccc3n(CCCN)c12)C1CCCc2cccnc21 (stereo not shown),,IC50 [1]: 7.3 nM
O=C(O)Cn1c2ccccc2c2ccnc(CN(CCCN3CCNCC3)C3CCCc4cccnc43)c21 (stereo not shown),,IC50 [1]: 26 nM
NCCCCN(Cc1nccc2c3ccccc3n(CC(=O)N3CCOCC3)c12)C1CCCc2cccnc21 (stereo not shown),,IC50 [1]: 5.6 nM
Cn1c(CN(CCCCN)C2CCCc3cccnc32)nnc1-c1ccccc1 (stereo not shown),3200,
NCCCCN(Cc1nccc2c1[nH]c1cc(F)ccc12)C1CCCc2cccnc21 (stereo not shown),565,
CN(Cc1nccc2c3ccccc3n(CCCCN)c12)[C@H]1CCCc2cccnc21,3370,
NCCCCN(Cc1cc2c(cn1)[nH]c1ccccc12)[C@H]1CCCc2cccnc21,100,
C#CCn1c2ccccc2c2ccnc(CN(CCCCN)C3CCCc4cccnc43)c21 (stereo not shown),,IC50 [1]: 5.5 nM
O=C(CN(Cc1nccc2c1[nH]c1ccccc12)[C@H]1CCCc2cccnc21)N1CCNCC1,1810,
c1cnc2c(c1)CCC[C@@H]2N(Cc1nccc2c1[nH]c1ccccc12)CC1CCCNC1 (stereo partly shown),3600,
CN1CCN(C(=O)Cn2c3ccccc3c3ccnc(CN(CCCCN)C4CCCc5cccnc54)c32)CC1 (stereo not shown),,IC50 [1]: 11 nM
NCCCCN(Cc1nccc2c3ccccc3n(CC(=O)N3CCOCC3)c12)[C@H]1CCCc2cccnc21 [drawing 701],79,
O=C(Cn1c2ccccc2c2ccnc(CN(CCCCNCc3ccccn3)[C@H]3CCCc4cccnc43)c21)N1CCOCC1,8650,
NCCCCN(Cc1nccc2c3ccccc3n(Cc3ccccc3)c12)[C@H]1CCCc2cccnc21,47,
COCCn1c2ccccc2c2ccnc(CN(CCCN3CCNCC3)[C@H]3CCCc4cccnc43)c21,49,
NCc1ccc(CN(Cc2nccc3c4ccccc4n(CC(=O)N4CCOCC4)c23)[C@H]2CCCc3cccnc32)cc1,,inhibition at 1 µM [2]: 0%
c1cnc2c(c1)CCCC2N(CCC1CCNCC1)Cc1nccc2c1[nH]c1ccccc12 (stereo not shown),,inhibition at 1 µM [2]: 55%
NC(=O)Cn1c2ccccc2c2ccnc(CN(CCCN3CCNCC3)[C@H]3CCCc4cccnc43)c21,9,
c1cnc2c(c1)CCCC2N(CCCCN1CCOCC1)Cc1nccc2c1[nH]c1ccccc12 (stereo not shown),,inhibition at 1 µM [2]: 49%
c1cnc2c(c1)CCCC2N(CCCCN1CCNCC1)Cc1nccc2c1[nH]c1ccccc12 (stereo not shown),1960,
NCCCCN(Cc1cc2c(cn1)[nH]c1ccccc12)[C@@H]1CCCc2cccnc21,1180,
c1cnc2c(c1)CCC[C@@H]2N(CCCN1CCNCC1)Cc1cc2c(cn1)[nH]c1ccccc12,331,
NCCCCN(Cc1nccc2c3ccccc3n(CCCN3CCNCC3)c12)C1CCCc2cccnc21 (stereo not shown),,IC50 [1]: 8.3 nM
CN(Cc1nccc2c1[nH]c1ccccc12)[C@H]1CCCc2cccnc21,,inhibition at 1 µM [2]: 0%
NCCCCN(Cc1nccc2c3ccccc3n(CC(=O)NC3CCOCC3)c12)[C@H]1CCCc2cccnc21,21,
O=C(Cn1c2ccccc2c2ccnc(CN(CCCC3CCNCC3)[C@H]3CCCc4cccnc43)c21)N1CCOCC1,124,

Structure (SMILES),IC50 [2] [nM],further results
NCCCCN(Cc1nccc2c3ccccc3n(CC(=O)N3CCC(O)CC3)c12)[C@H]1CCCc2cccnc21,212,
NCCCCN(Cc1nccc2c3ccccc3n(CC(=O)N3CCC(O)CC3)c12)C1CCCc2cccnc21 (stereo not shown),,IC50 [1]: 12 nM
O=C(CN(Cc1nccc2c1[nH]c1ccccc12)[C@H]1CCCc2cccnc21)NC1CCNCC1,,inhibition at 1 µM [2]: 0%
CC(C)(C)OC(=O)Cn1c2ccccc2c2ccnc(CN[C@H]3CCCc4cccnc43)c21,2810,
c1cnc2c(c1)CCCC2N(CCCN1CCNCC1)Cc1nccc2c3ccccc3n(CCN3CCOCC3)c12 (stereo not shown) [drawing 811],,IC50 [1]: 9.3 nM
NCCCCN(Cc1cc2c3ccccc3n(CC(=O)O)c2cn1)[C@H]1CCCc2cccnc21,864,
NCCCCN(Cc1nccc2c3ccccc3n(CC(=O)O)c12)[C@H]1CCCc2cccnc21 [drawing 709],22,
NCCCCN(Cc1nccc2c3ccccc3n(CC(N)=O)c12)C1CCCc2cccnc21 (stereo not shown),,IC50 [1]: 5.8 nM
NCCCCN(Cc1nccc2c3ccccc3n(CC(N)=O)c12)[C@H]1CCCc2cccnc21 [drawing 765],17,
CCNCCCCN(Cc1nccc2c1[nH]c1ccccc12)[C@H]1CCCc2cccnc21,699,
c1ccc(Cn2c3ccccc3c3ccnc(CN(CCCN4CCNCC4)[C@H]4CCCc5cccnc54)c32)cc1,152,
O=C(Cn1c2ccccc2c2ccnc(CN(Cc3ccc(CNCc4ccccn4)cc3)[C@H]3CCCc4cccnc43)c21)N1CCOCC1,,inhibition at 1 µM [2]: 0%
O=C(NNc1ccccc1)c1ccc(CN(Cc2nccc3c2[nH]c2ccccc23)[C@H]2CCCc3cccnc32)cc1,,inhibition at 1 µM [2]: 0%
NCc1ccc(CN(Cc2nccc3c2[nH]c2ccccc23)[C@H]2CCCc3cccnc32)cc1,,inhibition at 1 µM [2]: 0%
c1cnc2c(c1)CCCC2N(CCCN1CCOCC1)Cc1nccc2c1[nH]c1ccccc12 (stereo not shown),,inhibition at 1 µM [2]: 20%
O=C(Cn1c2ccccc2c2ccnc(CN(CCCCNCc3ccncc3)[C@H]3CCCc4cccnc43)c21)N1CCOCC1,2830,
c1cnc2c(c1)CCC[C@@H]2N(CCCN1CCNCC1)Cc1nccc2c3ccccc3n(CCN3CCOCC3)c12,24,
c1cnc2c(c1)CCCC2N(CCCCN(CC1CC1)CC1CC1)Cc1nccc2c1[nH]c1ccccc12 (stereo not shown),,inhibition at 1 µM [2]: 0%
c1cnc2c(c1)CCC[C@@H]2NCc1cc2c(cn1)[nH]c1ccccc12,,inhibition at 1 µM [2]: 39%
O=C(Cn1c2ccccc2c2ccnc(CN(CCCN3CCNCC3)[C@H]3CCCc4cccnc43)c21)N1CCCCC1,405,
C#CCn1c2ccccc2c2ccnc(CN(CCCCN)[C@H]3CCCc4cccnc43)c21,9,
CCN(CC)CCCCN(Cc1nccc2c1[nH]c1ccccc12)C1CCCc2cccnc21 (stereo not shown),,inhibition at 1 µM [2]: 4%
c1ccc(CN(CCCCN(Cc2nccc3c2[nH]c2ccccc23)C2CCCc3cccnc32)Cc2ccccn2)nc1 (stereo not shown),,inhibition at 1 µM [2]: 27%
c1cnc2c(c1)CCC[C@@H]2N(CCCCNCC1CC1)Cc1nccc2c1[nH]c1ccccc12,451,
CN1CCN(CCCN(Cc2nccc3c2[nH]c2ccccc23)[C@H]2CCCc3cccnc32)CC1,206,
c1cnc2c(c1)CCCC2N(CCN1CCOCC1)Cc1nccc2c1[nH]c1ccccc12 (stereo not shown),,inhibition at 1 µM [2]: 1%

Structure (SMILES),IC50 [2] [nM],further results
CS(=O)(=O)N1CCC(CCN(Cc2nccc3c2[nH]c2ccccc23)C2CCCc3cccnc32)CC1 (stereo not shown),,inhibition at 1 µM [2]: 5%
NCCCCN(Cc1nccc2c3ccccc3n(CCC3CCOCC3)c12)[C@H]1CCCc2cccnc21,13,
CS(=O)(=O)N1CCN(CCCN(Cc2nccc3c2[nH]c2ccccc23)C2CCCc3cccnc32)CC1 (stereo not shown),,inhibition at 1 µM [2]: 27%
CC(C)(C)OC(=O)CN(CCCCN(Cc1nccc2c1[nH]c1ccccc12)[C@H]1CCCc2cccnc21)CC(=O)OC(C)(C)C,,inhibition at 1 µM [2]: 18%
NCCCCN(Cc1nccc2c3ccccc3n(Cc3ccncc3)c12)[C@H]1CCCc2cccnc21,120,
CS(=O)(=O)NCCCCN(Cc1nccc2c1[nH]c1ccccc12)[C@H]1CCCc2cccnc21,,inhibition at 1 µM [2]: 0%
CS(=O)(=O)N1CCN(CCN(Cc2nccc3c2[nH]c2ccccc23)C2CCCc3cccnc32)CC1 (stereo not shown),10000,
CCN(Cc1nccc2c3ccccc3n(CCCN3C(=O)c4ccccc4C3=O)c12)[C@H]1CCCc2cccnc21,1640,
NCCCCN(Cc1nccc2c1[nH]c1ccccc12)[C@@H]1CCCc2cccnc21,1340,
NCCCCN(C(=O)c1nccc2c1[nH]c1ccccc12)C1CCCc2cccnc21 (stereo not shown),,inhibition at 1 µM [2]: 0%
O=C1CN(CCCN(Cc2nccc3c4ccccc4n(CCCN4C(=O)c5ccccc5C4=O)c23)[C@H]2CCCc3cccnc32)CCN1,138,
NCCCCN(Cc1nccc2c3ccccc3n(CCCN3CCNCC3=O)c12)[C@H]1CCCc2cccnc21,20,
NCCCCN(Cc1nccc2c3ccccc3n(CC(=O)N3CCCCC3)c12)[C@H]1CCCc2cccnc21,270,
O=C1c2ccccc2C(=O)N1CCCn1c2ccccc2c2ccnc(CN(CCCN3CCNCC3)[C@H]3CCCc4cccnc43)c21,44,
Cc1cccnc1CN(CCCCN)Cc1nccc2c3ccccc3n(CC(=O)N3CCOCC3)c12,583,
CC(C)(C)C(=O)N1CCN(CCCN(Cc2nccc3c2[nH]c2ccccc23)C2CCCc3cccnc32)CC1 (stereo not shown),1930,
NC/C=C/CN(Cc1nccc2c1[nH]c1ccccc12)[C@H]1CCCc2cccnc21,,inhibition at 1 µM [2]: 20%
CN1CCN(CCCN(Cc2nccc3c4ccccc4n(CC(=O)N4CCOCC4)c23)[C@H]2CCCc3cccnc32)CC1,628,
CC(C)CN(Cc1nccc2c3ccccc3n(CCCN3C(=O)c4ccccc4C3=O)c12)[C@H]1CCCc2cccnc21,6650,
N[C@H]1CC[C@@H](CN(Cc2nccc3c4ccccc4n(CC(=O)N4CCOCC4)c23)[C@H]2CCCc3cccnc32)CC1,1260,
CC(C)(C)OC(=O)[C@@H](N)CCCN(Cc1nccc2c1[nH]c1ccccc12)[C@H]1CCCc2cccnc21,9580,
CN(Cc1nccc2c3ccccc3n(CCN)c12)[C@H]1CCCc2cccnc21,142,
NCCN(Cc1nccc2c1[nH]c1ccccc12)C1CCCc2cccnc21 (stereo not shown),,inhibition at 1 µM [2]: 0%
NC/C=C\CN(Cc1nccc2c1[nH]c1ccccc12)[C@H]1CCCc2cccnc21,949,
